Results as given in patent publication US20210230170A1, “KRAS G12C INHIBITORS” (Mirati Therapeutics, Inc., priority 2018, published 2021).

These compounds were tested against T1, KRas G12C (Homo sapiens, UniProt P01116, G12C) (assay: Inhibition of KRas G12C in NCI-H358 cells measured by phosphorylated ERK (Phospho-ERK)). Settings: pERK(Thr202/Tyr204) signal normalized with GAPDH, percent of DMSO control, 3 hours compound treatment.
T1 construct: NCI-H358 cells (ATCC CRL-5807) express KRas G12C; host or cells: NCI-H358
T1 sequence (P01116 1-188 isoform P01116-2 G12C): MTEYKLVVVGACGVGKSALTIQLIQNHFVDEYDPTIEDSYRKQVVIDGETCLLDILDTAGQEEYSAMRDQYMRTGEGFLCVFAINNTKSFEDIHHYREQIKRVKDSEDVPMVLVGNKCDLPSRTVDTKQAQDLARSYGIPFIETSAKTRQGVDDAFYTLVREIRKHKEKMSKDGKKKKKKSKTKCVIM
Format: cell-based
Protocol: The cellular inhibition of KRAs G12C by exemplary compounds of the present invention was determined by measuring the amount of a downstream marker of KRas activity, phosphorylated ERK (“Phospho-ERK”).
NCI-H358 cells (ATCC CRL-5807) express KRas G12C and were grown in RPMI medium supplemented with 10% fetal bovine serum, penicillin/streptomycin and 10 mM HEPES. Cells were plated in poly-D-Lysine coated 96-well plates at a concentration of 50,000 cells/well and allowed to attach for 8-12 hours. Diluted compounds were then added at a final concentration of 0.5% DMSO. After 3 hours, the medium was removed, 150 μL of 4% formaldehyde was added and the plates were incubated for 20 minutes. The plates were washed with PBS, and permeabilized using 150 μL of ice cold 100% methanol for 10 minutes. Non-specific antibody binding to the plates was blocked using 100 μL Licor Blocking Buffer (Li-Cor Biotechnology, Lincoln Nebr.) for 1 hour at room temperature. Positive control samples and samples lacking cells were parallel processed with test samples as standards.
The amount Phospho-ERK was determined using an antibody specific for the phosphorylated form of ERK and compared to the amount of GAPDH. Primary antibodies used for detection were added as follows: Phospho-ERK (Cell Signaling cs9101) diluted 1:500 and GAPDH (Millipore MAB374) diluted 1:5000 in Licor block+0.05% Tween 20. The plates were incubated for 2 hours at room temperature. The plates were washed with PBS+0.05% Tween 20.
Secondary antibodies used to visualize primary antibodies were added as follows: Anti-rabbit-680 diluted 1:1000 and Anti-mouse-800 diluted 1:1000 in Licor Block+0.05% Tween 20 and incubated for 1 hour at room temperature. The plates were washed with PBS+0.05% Tween 20. A 100 μL aliquot of PBS was added to each well and the plates were read on a LICOR AERIUS plate reader.
The pERK(Thr202/Tyr204) signal was normalized with the GAPDH signal and percent of DMSO control values were calculated. IC50 values were generated using a 4 parameter fit of the dose response curve. Key: “A”≤500 nM; “B”>500 nM and ND=not determined.
Compound C=CC(=O)N1CCN(c2nc(OC[C@@H]3CCCN3C)nc3c2CCCN(c2cccc4cccc(C)c24)C3)C[C@@H]1CC#N [Example 1, 2-[(2S)-4-[8-(8-methyl-1-naphthyl)-2-[[(2S)-1-Methylpyrrolidin-2-yl]methoxy]-5,6,7,9-tetrahydropyrimido[4,5-c]azepin-4-yl]-1-prop-2-enoyl-piperazin-2-yl]acetonitrile] has an IC50 of at most 500 nM. In the case of C=C(F)C(=O)N1CCN(c2nc(OC[C@@H]3CCCN3C)nc3c2CCCN(c2cccc4cccc(C)c24)C3)C[C@@H]1CC#N [Example 2, 2-[(2S)-1-(2-fluoroprop-2-enoyl)-4-[8-(8-methyl-1-naphthyl)-2-[[(2S)-1-methylpyrrolidin-2-yl]methoxy]-5,6,7,9-tetrahydropyrimido[4,5-c]azepin-4-yl]piperazin-2-yl]acetonitrile], the IC50 is reported as over 500 nM. C=CC(=O)N1CCN(c2nc(OC[C@@H]3CCCN3C)nc3c2CCCN(c2c(C)ccc4ccccc24)C3)C[C@@H]1CC#N [Example 3, 2-[(2S)-4-[8-(2-methyl-1-naphthyl)-2-[[(2S)-1-methylpyrrolidin-2-yl]methoxy]-5,6,7,9-tetrahydropyrimido[4,5-c]azepin-4-yl]-1-prop-2-enoyl-piperazin-2-yl]acetonitrile] gave an IC50 of at most 500 nM. For C=CC(=O)N1CCN(c2nc(OC[C@@H]3CCCN3C)nc3c2CCCN(c2ccccc2C)C3)C[C@@H]1CC#N [Example 4, 2-[(2S)-4-[2-[[(2S)-1-methylpyrrolidin-2-yl]methoxy]-8-(o-tolyl)-5,6,7,9-tetrahydropyrimido[4,5-c]azepin-4-yl]-1-prop-2-enoyl-piperazin-2-yl]acetonitrile], the IC50 was over 500 nM. For C=CC(=O)N1CCN(c2nc(OC[C@@H]3CCCN3C)nc3c2CCCN(c2ccccc2)C3)C[C@@H]1CC#N [Example 5, 2-[(2S)-4[2-[[(2S)-1-methylpyrrolidin-2-yl]methoxy]-8-phenyl-5,6,7,9-tetrahydropyrimido[4,5-c]azepin-4-yl]-1-prop-2-enoyl-piperazin-2-yl]acetonitrile], the IC50 was over 500 nM. Work on C=CC(=O)N1CCN(c2nc(OC[C@@H]3CCCN3C)nc3c2CCCN(c2cccc4ccccc24)C3)C[C@@H]1CC#N [Example 6, 2-[(2S)-4-[2-[[(2S)-1-methylpyrrolidin-2-yl]methoxy]-8-(1-naphthyl)-5,6,7,9-tetrahydropyrimido[4,5-c]azepin-4-yl]-1-prop-2-enoyl-piperazin-2-yl]acetonitrile] yielded an IC50 of over 500 nM. In the case of C=CC(=O)N1CCN(c2nc(OC[C@@H]3CCCN3C)nc3c2CCCN(c2cccc4cccc(Cl)c24)C3)C[C@@H]1CC#N [Example 7, 2-((S)-1-acryloyl-4-(8-(8-chloronaphthalen-1-yl)-2-(((S)-1-methylpyrrolidin-2-yl)methoxy)-6,7,8,9-tetrahydro-5H-pyrimido[4,5-c]azepin-4-yl)piperazin-2-yl)acetonitrile], the IC50 is reported as over 500 nM. For C=CC(=O)N1CCN(c2nc(OC[C@@H]3CCCN3C)nc3c2CCCN(c2cccc(C(C)C)c2)C3)C[C@@H]1CC#N [Example 8, 2-[(2S)-4-[8-(3-isopropylphenyl)-2-[[(2S)-1-methylpyrrolidin-2-yl]methoxy]-5,6,7,9-tetrahydropyrimido[4,5-c]azepin-4-yl]-1-prop-2-enoyl-piperazin-2-yl]acetonitrile], the IC50 was over 500 nM. C=CC(=O)N1CCN(c2nc(OC[C@@H]3CCCN3C)nc3c2CCCN(c2cccc(F)c2C)C3)C[C@@H]1CC#N [Example 9, 2-((S)-1-acryloyl-4-(8-(3-fluoro-2-methylphenyl)-2-(((S)-1-methylpyrrolidin-2-yl)methoxy)-6,7,8,9-tetrahydro-5H-pyrimido[4,5-c]azepin-4-yl)piperazin-2-yl)acetonitrile] showed an IC50 of at most 500 nM. C=CC(=O)N1CCN(c2nc(OC[C@@H]3CCCN3C)nc3c2CCCN(c2c(F)ccc4ccccc24)C3)C[C@@H]1CC#N [Example 10, 2-((S)-1-acryloyl-4-(8-(2-fluoronaphthalen-1-yl)-2-(((S)-1-methylpyrrolidin-2-yl)methoxy)-6,7,8,9-tetrahydro-5H-pyrimido[4,5-c]azepin-4-yl)piperazin-2-yl)acetonitrile] gave an IC50 of at most 500 nM. C=CC(=O)N1CCN(c2nc(OC[C@@H]3CCCN3C)nc3c2CCCN(c2cccc4c(C)cccc24)C3)C[C@@H]1CC#N [Example 11, 2-((S)-1-acryloyl-4-(8-(5-methylnaphthalen-1-yl)-2-(((S)-1-methylpyrrolidin-2-yl)methoxy)-6,7,8,9-tetrahydro-5H-pyrimido[4,5-c]azepin-4-yl)piperazin-2-yl)acetonitrile] was tested, and the IC50 was over 500 nM. C=CC(=O)N1CCN(c2nc(OC[C@@H]3CCCN3C)nc3c2CCCN(c2cccc4c(F)cccc24)C3)C[C@@H]1CC#N [Example 12, 2-((S)-1-acryloyl-4-(8-(5-fluoronaphthalen-1-yl)-2-(((S)-1-methylpyrrolidin-2-yl)methoxy)-6,7,8,9-tetrahydro-5H-pyrimido[4,5-c]azepin-4-yl)piperazin-2-yl)acetonitrile] was tested, and the IC50 was at most 500 nM. C=CC(=O)N1CCN(c2nc(OC[C@@H]3CCCN3C)nc3c2CCCN(c2cccc(F)c2C(F)(F)F)C3)C[C@@H]1CC#N [Example 14, 2-[(2S)-4-[8-[3-fluoro-2-(trifluoromethyl)phenyl]-2-[[(2S)-1-methylpyrrolidin-2-yl]methoxy]-5,6,7,9-tetrahydropyrimido[4,5-c]azepin-4-yl]-1-prop-2-enoyl-piperazin-2-yl]acetonitrile] was tested, and the IC50 was at most 500 nM. C=CC(=O)N1CCN(c2nc(OC[C@@H]3CCCN3C)nc3c2CCCN(c2ncccc2C(F)(F)F)C3)C[C@@H]1CC#N [Example 15, 2-[(2S)-4-[2-[[(2S)-1-methylpyrrolidin-2-yl]methoxy]-8-[3-(trifluoromethyl)-2-pyridyl]-5,6,7,9-tetrahydropyrimido[4,5-c]azepin-4-yl]-1-prop-2-enoyl-piperazin-2-yl]acetonitrile] showed an IC50 of over 500 nM. Compound C=CC(=O)N1CCN(c2nc(OC[C@@H]3CCCN3C)nc3c2CCCN(c2ccccc2CO)C3)C[C@@H]1CC#N [Example 16, 2-[(2S)-4-[8-[2-(hydroxymethyl)phenyl]-2-[[(2S)-1-methylpyrrolidin-2-yl]methoxy]-5,6,7,9-tetrahydropyrimido[4,5-c]azepin-4-yl]-1-prop-2-enoyl-piperazin-2-yl]acetonitrile] has an IC50 of over 500 nM. For C=CC(=O)N1CCN(c2nc(OC[C@@H]3CCCN3C)nc3c2CCCN(c2nccc4cccc(C)c24)C3)C[C@@H]1CC#N [Example 17, 2-[(2S)-4-[8-(8-methyl-1-isoquinolyl)-2-[[(2S)-1-methylpyrrolidin-2-yl]methoxy]-5,6,7,9-tetrahydropyrimido[4,5-c]azepin-4-yl]-1-prop-2-enoyl-piperazin-2-yl]acetonitrile], the IC50 was at most 500 nM. C=CC(=O)N1CCN(c2nc(OC[C@@H]3CCCN3C)nc3c2CCCN(c2c(C)cccc2F)C3)C[C@@H]1CC#N [Example 18, 2-[(2S)-4-[8-(2-fluoro-6-methyl-phenyl)-2-[[(2S)-1-methylpyrrolidin-2-yl]methoxy]-5,6,7,9-tetrahydropyrimido[4,5-c]azepin-4-yl]-1-prop-2-enoyl-piperazin-2-yl]acetonitrile] was tested, and the IC50 was at most 500 nM. Compound C=CC(=O)N1CCN(c2nc(OC[C@@H]3CCCN3C)nc3c2CCCN(c2c(C)ccc4[nH]ncc24)C3)C[C@@H]1CC#N [Example 19, 2-[(2S)-4-[8-(5-methyl-1H-indazol-4-yl)-2-[[(2S)-1-methylpyrrolidin-2-yl]methoxy]-5,6,7,9-tetrahydropyrimido[4,5-c]azepin-4-yl]-1-prop-2-enoyl-piperazin-2-yl]acetonitrile] has an IC50 of over 500 nM.
